Data taken from ChEMBL document CHEMBL2040759, “Design, synthesis and anticancer activity of nitric oxide donating/chalcone hybrids” (2012).

Columns and labels:
Format in all cases: functional
MDA-MB-231 = assay: Growth inhibition of human MDA-MB-231 cells assessed as cell growth at 10^-5 M after 48 hrs by SRB assay; conditions: MDA-MB-231, 48 h, read-out: Activity
T47D = assay: Growth inhibition of human T47D cells assessed as cell growth at 10^-5 M after 48 hrs by SRB assay; conditions: read-out: Activity
U-251 = assay: Growth inhibition of human U251 cells assessed as cell growth at 10^-5 M after 48 hrs by SRB assay; conditions: U-251, 48 h, read-out: Activity
HT-29 = assay: Growth inhibition of human HT-29 cells assessed as cell growth at 10^-5 M after 48 hrs by SRB assay; conditions: HT-29, 48 h, read-out: Activity
SF-295 = assay: Growth inhibition of human SF295 cells assessed as cell growth at 10^-5 M after 48 hrs by SRB assay; conditions: SF-295, 48 h, read-out: Activity
HCT-116 = assay: Growth inhibition of human HCT116 cells assessed as cell growth at 10^-5 M after 48 hrs by SRB assay; conditions: HCT-116, 48 h, read-out: Activity
HCC 2998 = assay: Growth inhibition of human HCC2998 cells assessed as cell growth at 10^-5 M after 48 hrs by SRB assay; conditions: HCC 2998, 48 h, read-out: Activity
NCI-H460 = assay: Growth inhibition of human NCI-H460 cells assessed as cell growth at 10^-5 M after 48 hrs by SRB assay; conditions: NCI-H460, 48 h, read-out: Activity
UO-31 = assay: Growth inhibition of human UO31 cells assessed as cell growth at 10^-5 M after 48 hrs by SRB assay; conditions: UO-31, 48 h, read-out: Activity
PC-3 = assay: Growth inhibition of human PC3 cells assessed as cell growth at 10^-5 M after 48 hrs by SRB assay; conditions: PC-3, 48 h, read-out: Activity
NCI-H522 = assay: Growth inhibition of human NCI-H522 cells assessed as cell growth at 10^-5 M after 48 hrs by SRB assay; conditions: NCI-H522, 48 h, read-out: Activity
Malme-3M = assay: Growth inhibition of human MALME-3M cells assessed as cell growth at 10^-5 M after 48 hrs by SRB assay; conditions: read-out: Activity
MDA-MB-435 = assay: Growth inhibition of human MDA-MB-435 cells assessed as cell growth at 10^-5 M after 48 hrs by SRB assay; conditions: MDA-MB-435, 48 h, read-out: Activity
MDA-MB-468 = assay: Growth inhibition of human MDA-MB-468 cells assessed as cell growth at 10^-5 M after 48 hrs by SRB assay; conditions: MDA-MB-468, 48 h, read-out: Activity
SNB-75 = assay: Growth inhibition of human SNB75 cells assessed as cell growth at 10^-5 M after 48 hrs by SRB assay; conditions: SNB-75, 48 h, read-out: Activity
ACHN = assay: Growth inhibition of human ACHN cells assessed as cell growth at 10^-5 M after 48 hrs by SRB assay; conditions: read-out: Activity
DU-145 = assay: Growth inhibition of human DU145 cells assessed as cell growth at 10^-5 M after 48 hrs by SRB assay; conditions: DU-145, 48 h, read-out: Activity
[1] = Growth inhibition of human Hs 578T cells assessed as cell growth at 10^-5 M after 48 hrs by SRB assay; conditions: read-out: Activity
KM12 = assay: Growth inhibition of human KM12 cells assessed as cell growth at 10^-5 M after 48 hrs by SRB assay; conditions: KM12, 48 h, read-out: Activity
786-0 = assay: Growth inhibition of human 786-0 cells assessed as cell growth at 10^-5 M after 48 hrs by SRB assay; conditions: 786-0, 48 h, read-out: Activity
SK-MEL-5 = assay: Growth inhibition of human SK-MEL-5 cells assessed as cell growth at 10^-5 M after 48 hrs by SRB assay; conditions: SK-MEL-5, 48 h, read-out: Activity
OVCAR-4 = assay: Growth inhibition of human OVCAR4 cells assessed as cell growth at 10^-5 M after 48 hrs by SRB assay; conditions: OVCAR-4, 48 h, read-out: Activity
NCI-H226 = assay: Growth inhibition of human NCI-H226 cells assessed as cell growth at 10^-5 M after 48 hrs by SRB assay; conditions: NCI-H226, 48 h, read-out: Activity
OVCAR-3 = assay: Growth inhibition of human OVCAR3 cells assessed as cell growth at 10^-5 M after 48 hrs by SRB assay; conditions: OVCAR-3, 48 h, read-out: Activity
COLO 205 = assay: Growth inhibition of human COLO205 cells assessed as cell growth at 10^-5 M after 48 hrs by SRB assay; conditions: COLO 205, 48 h, read-out: Activity
EKVX = assay: Growth inhibition of human EKVX cells assessed as cell growth at 10^-5 M after 48 hrs by SRB assay; conditions: read-out: Activity
SK-MEL-2 = assay: Growth inhibition of human SK-MEL-2 cells assessed as cell growth at 10^-5 M after 48 hrs by SRB assay; conditions: SK-MEL-2, 48 h, read-out: Activity
HOP-92 = assay: Growth inhibition of human HOP92 cells assessed as cell growth at 10^-5 M after 48 hrs by SRB assay; conditions: HOP-92, 48 h, read-out: Activity
CAKI-1 = assay: Growth inhibition of human Caki1 cells assessed as cell growth at 10^-5 M after 48 hrs by SRB assay; conditions: CAKI-1, 48 h, read-out: Activity
SN12C = assay: Growth inhibition of human SN12C cells assessed as cell growth at 10^-5 M after 48 hrs by SRB assay; conditions: read-out: Activity
OVCAR-5 = assay: Growth inhibition of human OVCAR5 cells assessed as cell growth at 10^-5 M after 48 hrs by SRB assay; conditions: OVCAR-5, 48 h, read-out: Activity
SNB-19 = assay: Growth inhibition of human SNB19 cells assessed as cell growth at 10^-5 M after 48 hrs by SRB assay; conditions: SNB-19, 48 h, read-out: Activity
UACC-257 = assay: Growth inhibition of human UACC257 cells assessed as cell growth at 10^-5 M after 48 hrs by SRB assay; conditions: UACC-257, 48 h, read-out: Activity
A549 = assay: Growth inhibition of human A549/ATCC cells assessed as cell growth at 10^-5 M after 48 hrs by SRB assay; conditions: A549, 48 h, read-out: Activity
LOX IMVI = assay: Growth inhibition of human LOXIMVI cells assessed as cell growth at 10^-5 M after 48 hrs by SRB assay; conditions: read-out: Activity
IGROV-1 = assay: Growth inhibition of human IGROV1 cells assessed as cell growth at 10^-5 M after 48 hrs by SRB assay; conditions: IGROV-1, 48 h, read-out: Activity

O=C(CO[N+](=O)[O-])Nc1ccc(C(=O)/C=C/c2ccc(Cl)cc2)cc1
growth at 10 µM (MDA-MB-231): 55%
growth at 10 µM (T47D): 55.5%
growth at 10 µM (U-251): 14.9%
growth at 10 µM (HT-29): -23.4%
growth at 10 µM (SF-295): 105%
growth at 10 µM (HCT-116): -49.2%
growth at 10 µM (HCC 2998): -61.3%
growth at 10 µM (NCI-H460): 84.9%
growth at 10 µM (UO-31): 31.9%
growth at 10 µM (PC-3): 27.6%
growth at 10 µM (NCI-H522): 38.7%
growth at 10 µM (Malme-3M): 79.1%
growth at 10 µM (MDA-MB-435): -2.76%
growth at 10 µM (MDA-MB-468): 48.7%
growth at 10 µM (SNB-75): 69.7%
growth at 10 µM (ACHN): 62.3%
growth at 10 µM (DU-145): 79.9%
growth at 10 µM [1]: 89.7%
growth at 10 µM (KM12): -60.6%
growth at 10 µM (786-0): 75%
growth at 10 µM (SK-MEL-5): 54.5%
growth at 10 µM (OVCAR-4): 76.1%
growth at 10 µM (NCI-H226): 81.7%
growth at 10 µM (OVCAR-3): 0.33%
growth at 10 µM (COLO 205): 36.1%
growth at 10 µM (EKVX): 67.9%
growth at 10 µM (SK-MEL-2): 81.7%
growth at 10 µM (HOP-92): 66.8%
growth at 10 µM (CAKI-1): 74.9%
growth at 10 µM (SN12C): 46.8%
growth at 10 µM (OVCAR-5): 67%
growth at 10 µM (SNB-19): 87.8%
growth at 10 µM (UACC-257): 61.2%
growth at 10 µM (A549): 67.6%
growth at 10 µM (LOX IMVI): -60.9%
growth at 10 µM (IGROV-1): -26%

O=C(CO[N+](=O)[O-])Nc1ccc(C(=O)/C=C/c2ccc3c(c2)OCO3)cc1
growth at 10 µM (MDA-MB-231): 87.4%
growth at 10 µM (T47D): 83%
growth at 10 µM (U-251): 57.3%
growth at 10 µM (HT-29): 30.1%
growth at 10 µM (SF-295): 74.6%
growth at 10 µM (HCT-116): -5.9%
growth at 10 µM (HCC 2998): 69.2%
growth at 10 µM (NCI-H460): 108%
growth at 10 µM (UO-31): 77.1%
growth at 10 µM (PC-3): 61.4%
growth at 10 µM (NCI-H522): 97.6%
growth at 10 µM (Malme-3M): 116%
growth at 10 µM (MDA-MB-435): 62.6%
growth at 10 µM (MDA-MB-468): 91.9%
growth at 10 µM (SNB-75): 86.3%
growth at 10 µM (ACHN): 99.2%
growth at 10 µM (DU-145): 96.7%
growth at 10 µM [1]: 103%
growth at 10 µM (KM12): 35.9%
growth at 10 µM (786-0): 109%
growth at 10 µM (SK-MEL-5): 90.8%
growth at 10 µM (OVCAR-4): 96.1%
growth at 10 µM (NCI-H226): 107%
growth at 10 µM (OVCAR-3): 80.6%
growth at 10 µM (COLO 205): 113%
growth at 10 µM (EKVX): 99.7%
growth at 10 µM (SK-MEL-2): 119%
growth at 10 µM (HOP-92): 77.3%
growth at 10 µM (CAKI-1): 93%
growth at 10 µM (SN12C): 95.4%
growth at 10 µM (OVCAR-5): 96.5%
growth at 10 µM (SNB-19): 104%
growth at 10 µM (UACC-257): 92.9%
growth at 10 µM (A549): 88.9%
growth at 10 µM (LOX IMVI): 21.5%
growth at 10 µM (IGROV-1): 46.3%
